What is called inhibition is the change of the read-out against control, counted positive when it falls. For orientation: IC50 means the concentration that inhibits the measured activity by half.

For assay [1], the target named is T1, HER-2 (Homo sapiens, UniProt P04626).
T1 construct: His6 with thrombin site (N); purchased Proqinase (Freiburg, Germany)
Nature of the assay: HER-2 Kinase Assay. As to conditions: for inhibition at 1 µM: test concentration of 1 μM; for IC50: value in parentheses. It counts as biochemical. The protocol:
The HER-2 kinase used was purified at Proqinase (Freiburg, Germany) from a construct that consisted of a fusion of GST (Glutathione-S-Transferase), HIS6-Thrombin and the nucleotides encoding amino acids 679 to 1255 of HER-2 (Accession Number M11730).
A mixture of a 10× kinase reaction buffer (600 mM Hepes at pH 7.5, 30 mM Magnesium Chloride, 0.03 mM Sodium Vanadate and 500 μg/mL PEG 20,000), DTT (1.2 mM final from a 10 mM stock), APT (1 μM from a 10 mM stock), biotinylated polyGluTyr (1.5 ng/μL final from stock of 1 μg/μL) prepared by Upstate Biotechnologies, Lake Placid, N.Y.), Manganese Chloride (3 mM final from a 1 M stock), γ-^33P-ATP (10 μCl/μL stock) and water (70 μL/well) was added to each well of a Streptavidin Flashplate (Cat. # SMP103, NEN, Boston, Mass.).
Test compound stock (1 μL) was added to the appropriate wells. Diluted GSTHER2 kinase (6.7 ng/μL diluted into 50 mM Tris-HCl at pH 8.0 and 0.1% bovine serum albumin) (30 μL) was added (total volume of 200 ng/well) to initiate the reactions.
The reaction plates were incubated at 30° C. for 1 hr. The reaction was terminated by aspirating the reaction mixture from the plate wells and washing the wells three times with a 1×PBS stop buffer (300 μL) and 100 mM EDTA. After the final wash, the same stop buffer (200 μL) was again added to the wells. The plates were then sealed and read on the TopCount scintillation counter.
The Her-2 inhibition values were derived according to the procedure described in Example 164 and are shown as percent in Table 4 at a test concentration of 1 μM. For those compounds with an IC50, the IC50 value in μM is shown in parentheses. For compounds with multiple test values, each value represents a separate assay result.

The target in assay [2] is T2, EGFR (Homo sapiens, UniProt P00533).
T2 construct: The intracellular portion of EGFR started at nucleotide 2189 (corresponding to amino acid 667) and ended at the termination codon; made in house; host or cells: Sf9 insect cells (baculovirus)
Nature of the assay: EGFR Kinase Assay. It is filed as biochemical. As to conditions: for IC50: GST-EGFR, ATP 5 μM; for inhibition at 2 µM: test concentration of 2 μM, compounds without an IC50, read-out: EGFR inhibition in percent. An excerpt: The EGFR kinase used was a fusion of Glutathione-S-Transferase (GST) and a PCR amplified intracellular portion of EGFR (Accession Number NM_005228). The intracellular portion of EGFR started at nucleotide 2189 (corresponding to amino acid 667) and ended at the termination codon. The portion was PCR amplified with primers that added the lambda attB sequences to each end, recombined into an entry vector, then into a GST destination vector (as described in Gateway Technologies Manual by Invitrogen Corporation, Carlsbad, Calif.).
The destination vector was recombined in the DH10BAC strain of bacteria to produce a bacmid. The bacmid was transfected into Sf 9 cells and the supernatant containing the baculovirus was collected. The GSTEGFR protein was purified using large cultures of Sf 9 cells infected with stock virus. After an appropriate period of time, the cells were collected and lysed. The GSTEGFR was then purified from the lysate on Glutathione-Sepharose columns (as described by Amersham Biosciences, Buckinghamshire, United Kingdom).
The EGFR substrate was prepared by biotinylating polyGluTyr (128 mg) (Sigma, St. Louis, Mo.) in a 1×PBS buffer incubated together with a 12-fold molar excess of Sulfo-NHS-LC-Biotin on ice for at least 2 hrs. The free biotin was separated from the biotinylated polyGluTyr on a gel filtration column.
A mixture of a 10× kinase buffer (500 mM Tris at pH 8.0, 100 mM Magnesium Chloride and 1 mM Sodium Vanadate), DTT (1 mM final from 500 mM stock), ATP (5 μM final from 10 mM stock), biotinylated polyGluTyr (10 μg/μL stock), γ-^33P ATP (10 μCl/μL stock) and water was added to each well (for a total of 90 μL/well) of a Streptavidin Flashplate (Perkin Elmer, Wellesley, Mass.).
Test compound in 100% DMSO (2 μL) was added to the appropriate wells. Diluted GSTEGFR (1:300 dilution in 50 mM Tris at pH 8.0 and 0.1% bovine serum albumin) (10 μL) was added to the wells to initiate the reactions.
The plates were incubated at 30° C. for 1 hr with shaking. The reacted contents were removed and the plates were sequentially washed three times with a 1×PBS stop buffer (300 μL without Magnesium and Calcium) and 100 mM EDTA. After the final wash, the same stop buffer (200 μL) was added to the wells. The plates were then sealed and read on the TopCount scintillation counter.
Test compounds were assayed in triplicate at 16 concentrations at half-log dilutions starting at 200 uM. A maximum and minimum signal for the assay was determined on each plate. The percent inhibition of a test compound was calculated according to the formula: […]
For a series of test concentrations, the IC50 was derived by graphing percent inhibition against the log of the concentrations tested for a given compound. For those compounds without an IC50, the inhibition values in percent are shown at a test concentration of 2 μM. For compounds with multiple values, each value represents a separate assay result.

T2 sequence (P00533 669-1210 limits assumed): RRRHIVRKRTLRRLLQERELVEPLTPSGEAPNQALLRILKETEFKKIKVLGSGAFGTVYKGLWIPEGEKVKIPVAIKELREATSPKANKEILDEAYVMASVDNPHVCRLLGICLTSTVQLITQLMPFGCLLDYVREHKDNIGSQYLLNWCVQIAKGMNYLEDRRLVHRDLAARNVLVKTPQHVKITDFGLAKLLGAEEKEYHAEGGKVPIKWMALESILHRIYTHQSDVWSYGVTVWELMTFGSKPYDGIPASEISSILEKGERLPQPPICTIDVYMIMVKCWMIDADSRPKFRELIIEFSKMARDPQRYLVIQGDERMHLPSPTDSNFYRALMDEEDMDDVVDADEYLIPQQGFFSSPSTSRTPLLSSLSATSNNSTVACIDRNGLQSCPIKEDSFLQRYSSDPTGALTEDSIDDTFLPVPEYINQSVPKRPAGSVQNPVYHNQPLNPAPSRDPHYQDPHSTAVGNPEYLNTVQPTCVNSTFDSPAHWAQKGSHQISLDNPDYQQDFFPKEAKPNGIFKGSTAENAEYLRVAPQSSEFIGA
T1 sequence (P04626 679-1255): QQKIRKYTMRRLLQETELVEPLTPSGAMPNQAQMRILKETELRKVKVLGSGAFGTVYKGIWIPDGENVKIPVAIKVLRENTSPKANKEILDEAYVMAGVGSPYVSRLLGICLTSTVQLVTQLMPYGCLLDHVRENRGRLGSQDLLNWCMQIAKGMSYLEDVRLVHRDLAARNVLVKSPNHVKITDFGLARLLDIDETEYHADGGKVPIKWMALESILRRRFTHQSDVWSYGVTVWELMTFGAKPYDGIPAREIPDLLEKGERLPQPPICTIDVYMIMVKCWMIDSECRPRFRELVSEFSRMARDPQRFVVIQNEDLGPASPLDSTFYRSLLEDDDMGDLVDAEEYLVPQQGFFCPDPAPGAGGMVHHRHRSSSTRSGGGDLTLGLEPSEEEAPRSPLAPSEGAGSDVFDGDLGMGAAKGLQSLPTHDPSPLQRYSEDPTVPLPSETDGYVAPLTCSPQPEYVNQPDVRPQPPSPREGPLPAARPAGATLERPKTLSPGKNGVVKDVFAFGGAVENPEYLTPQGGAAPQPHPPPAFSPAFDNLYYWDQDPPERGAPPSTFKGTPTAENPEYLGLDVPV

On to `COc1ccc(N2C(=O)Nc3c(C(=O)Nc4ccc(OC)c(OC)c4)sc4ncnc2c34)c(F)c1` [Cpd 69, 5-(2-fluoro-4-methoxy-phenyl)-4-oxo-4,5-dihydro-3H-1-thia-3,5,6,8-tetraaza-acenaphthylene-2-carboxylic acid (3,4-dimethoxy-phenyl)-amide], for which the inhibition at 1 µM in assay [1] was -3%. The concentration for half-maximal inhibition (IC50) in assay [2] was 970 nM.
`COc1ccc(Cl)cc1N1C(=O)Nc2c(C(=O)Nc3ccc(CN4CCCCC4)cc3)sc3ncnc1c23` [Cpd 72, 5-(5-chloro-2-methoxy-phenyl)-4-oxo-4,5-dihydro-3H-1-thia-3,5,6,8-tetraaza-acenaphthylene-2-carboxylic acid (4-piperidin-1-ylmethyl-phenyl)-amide]: in assay [1], the inhibition at 1 µM stood at 4%. For the same compound, the inhibition at 2 µM in assay [2] worked out at 57%.
Taken in the same sequence, the figures for `COc1cc(NC(=O)c2sc3ncnc4c3c2NC(=O)N4c2cc(Cl)ccc2OC)ccc1OCCN1CCCCC1` [Cpd 74, 5-(5-chloro-2-methoxy-phenyl)-4-oxo-4,5-dihydro-3H-1-thia-3,5,6,8-tetraaza-acenaphthylene-2-carboxylic acid [3-methoxy-4-(2-piperidin-1-yl-ethoxy)-phenyl]-amide] were 4% and 56%.
On to `COc1ccc(Cl)cc1N1C(=O)Nc2c(C(=O)Nc3ccc(CN(C)C[C@H]4CCCO4)cc3)sc3ncnc1c23` [Cpd 75, 5-(5-chloro-2-methoxy-phenyl)-4-oxo-4,5-dihydro-3H-1-thia-3,5,6,8-tetraaza-acenaphthylene-2-carboxylic acid [4-({methyl-[(2R)-tetrahydro-furan-2-ylmethyl]-amino}-methyl)-phenyl]-amide], for which the inhibition at 1 µM in assay [1] was 2%. In assay [2], the inhibition at 2 µM stood at 46%.
As to `COc1cc(N2C(=O)Nc3c(C(=O)Nc4ccc(CN5CCCCC5)cc4)sc4ncnc2c34)ccc1Br` [Cpd 81, 5-(4-bromo-3-methoxy-phenyl)-4-oxo-4,5-dihydro-3H-1-thia-3,5,6,8-tetraaza-acenaphthylene-2-carboxylic acid (4-piperidin-1-ylmethyl-phenyl)-amide], the IC50 in assay [1] came out at 695 nM; in assay [2], 498 nM.
Taken in the same sequence, the figures for `COc1cc(N2C(=O)Nc3c(C(=O)Nc4ccc(CN5CCOCC5)cc4)sc4ncnc2c34)ccc1Br` [Cpd 84, 5-(4-bromo-3-methoxy-phenyl)-4-oxo-4,5-dihydro-3H-1-thia-3,5,6,8-tetraaza-acenaphthylene-2-carboxylic acid (4-morpholin-4-ylmethyl-phenyl)-amide] were 518 nM and 776 nM.
The like results for `COc1cc(NC(=O)c2sc3ncnc4c3c2NC(=O)N4c2ccc(OCc3ccccn3)c(Cl)c2)ccc1OCCN1CCOCC1` [Cpd 86, 5-[3-chloro-4-(pyridin-2-ylmethoxy)-phenyl]-4-oxo-4,5-dihydro-3H-1-thia-3,5,6,8-tetraaza-acenaphthylene-2-carboxylic acid [3-methoxy-4-(2-morpholin-4-yl-ethoxy)-phenyl]-amide] were, in that order, 350 nM and 83 nM.
Taken in the same sequence, the figures for `Cc1ccc(N2C(=O)Nc3c(C(=O)Nc4ccc(CN5CCCCC5)cc4)sc4ncnc2c34)cc1Br` [Cpd 111, 5-(3-bromo-4-methyl-phenyl)-4-oxo-4,5-dihydro-3H-1-thia-3,5,6,8-tetraaza-acenaphthylene-2-carboxylic acid (4-piperidin-1-ylmethyl-phenyl)-amide] were 325 nM and 29 nM.
On to `O=C(Nc1ccc(CN2CCCCC2)cc1)c1sc2ncnc3c2c1NC(=O)N3c1ccc(Oc2cccc(F)c2)c(Cl)c1` [Cpd 160, 5-[3-chloro-4-(3-fluoro-phenoxy)-phenyl]-4-oxo-4,5-dihydro-3H-1-thia-3,5,6,8-tetraaza-acenaphthylene-2-carboxylic acid (4-piperidin-1-ylmethyl-phenyl)-amide], for which the IC50 in assay [1] was determined as 155 nM; in assay [2], 23 nM.
The like results for `COc1cc(NC(=O)c2sc3ncnc4c3c2NC(=O)N4c2ccc(Oc3cccc(F)c3)c(Cl)c2)ccc1OCCN1CCCCC1` [Cpd 161, 5-[3-chloro-4-(3-fluoro-phenoxy)-phenyl]-4-oxo-4,5-dihydro-3H-1-thia-3,5,6,8-tetraaza-acenaphthylene-2-carboxylic acid [3-methoxy-4-(2-piperidin-1-yl-ethoxy)-phenyl]-amide] were, in that order, 699 nM and 23 nM.
The like results for `O=C(Nc1ccc(CN2CCOCC2)cc1)c1sc2ncnc3c2c1NC(=O)N3c1ccc(Oc2cccc(F)c2)c(Cl)c1` [Cpd 162, 5-[3-chloro-4-(3-fluoro-phenoxy)-phenyl]-4-oxo-4,5-dihydro-3H-1-thia-3,5,6,8-tetraaza-acenaphthylene-2-carboxylic acid (4-morpholin-4-ylmethyl-phenyl)-amide] were, in that order, 82 nM and 26 nM.
For the compound `O=C(Nc1ccc(C(O)CN2CCOCC2)cc1)c1sc2ncnc3c2c1NC(=O)N3c1ccc(Oc2ccccc2)cc1` (stereo not drawn) [Cpd 174, 4-oxo-5-(4-phenoxy-phenyl)-4,5-dihydro-3H-1-thia-3,5,6,8-tetraaza-acenaphthylene-2-carboxylic acid [4-(1-hydroxy-2-morpholin-4-yl-ethyl)-phenyl]-amide], the IC50 was found to be 818 nM in assay [1] and 18 nM in assay [2].
Taken in the same sequence, the figures for `CN1CCC(NC(=O)c2sc3ncnc4c3c2NC(=O)N4c2ccc3c(cnn3Cc3cccc(F)c3)c2)CC1` [Cpd 177, 5-[1-(3-fluoro-benzyl)-1H-indazol-5-yl]-4-oxo-4,5-dihydro-3H-1-thia-3,5,6,8-tetraaza-acenaphthylene-2-carboxylic acid (1-methyl-piperidin-4-yl)-amide] were 1500 nM and 75 nM.
For the compound `CCOC(=O)c1sc2ncnc3c2c1NC(=O)N3C(C)c1ccc(Br)cc1` (stereo not drawn) [Cpd 179, 5-[1-(4-bromo-phenyl)-ethyl]-4-oxo-4,5-dihydro-3H-1-thia-3,5,6,8-tetraaza-acenaphthylene-2-carboxylic acid ethyl ester], the IC50 in assay [1] is more than 100000 nM. Besides, the inhibition at 2 µM in assay [2] came to 0.7%.
With `O=C(Nc1ccc(CN2CCOCC2)cc1)c1sc2ncnc3c2c1NC(=O)N3c1ccc(OCc2ccccn2)c(Br)c1` [Cpd 180, 5-[3-bromo-4-(pyridin-2-ylmethoxy)-phenyl]-4-oxo-4,5-dihydro-3H-1-thia-3,5,6,8-tetraaza-acenaphthylene-2-carboxylic acid (4-morpholin-4-ylmethyl-phenyl)-amide], the 50% inhibitory concentration (IC50) is 112 nM in assay [1] and 95 nM in assay [2].

The record behind these values is US7579356B2, “Thia-tetraazaacenaphthylene kinase inhibitors” (Janssen Pharmaceutica NV, priority 2005, dated 2009).
